Test systems include HOP-92 NSCLC; A549 NSCLC; EKVX NSCLC; TK-10 renal; K-562 leukemia; SNB-75 CNS; CAKI-1 renal; M14 melanoma.
Assay in all cases: DTP human tumour cell line panel, 48 h

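The compound was tested at five concentrations on cells cultured in 96-well plates, with a 48-hour exposure period. Definition used: TGI = concentration required for complete inhibition of growth.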

On to `CC1=C(C(=O)Nc2ccccc2C)C(c2ccccc2C)C(C(=O)Nc2ccccc2C)=C(C)N1`, for which the TGI (as a rule, the concentration at which net growth stops) in the assay on HOP-92 NSCLC was 29.4 µM; with A549 NSCLC, > 100 µM; in the assay with EKVX NSCLC, 42.3 µM; in the assay with TK-10 renal it was 64.4 µM; with K-562 leukemia it was 69.3 µM; with SNB-75 CNS, 59.2 µM.
For the compound `O=C(O)C1CC2CC(=O)C1C2` (stereo unspecified), the concentration for total growth inhibition (TGI) in the assay on HOP-92 NSCLC, in the assay on CAKI-1 renal, in the assay on M14 melanoma, in the assay on A549 NSCLC, in the assay with EKVX NSCLC and in the assay with TK-10 renal was > 100 µM throughout. The TGI in the assay on K-562 leukemia and in the assay with SNB-75 CNS was > 100 µM in each case.
For `O=c1[nH]c2c(c3ccccc13)CCc1ccccc1-2`, the TGI with CAKI-1 renal, with A549 NSCLC, in the assay on EKVX NSCLC, in the assay on TK-10 renal, with K-562 leukemia and in the assay with SNB-75 CNS was > 100 µM each time.
`Cc1ccc(Nc2nc(C)c(C(/C=C/c3ccc4c(c3)OCO4)=N/Nc3ccc([N+](=O)[O-])cc3[N+](=O)[O-])s2)c([N+](=O)[O-])c1`: the TGI in the assay with CAKI-1 renal, with M14 melanoma, with A549 NSCLC, with EKVX NSCLC, with TK-10 renal and in the assay with K-562 leukemia was > 100 µM throughout. Moreover, in the assay on SNB-75 CNS, the TGI was > 100 µM.
As to `CC1CC(=O)c2c(ccc3c2C(=O)c2cccc(O)c2C3=O)C1` (stereo unspecified), the TGI in the assay on HOP-92 NSCLC is 13.1 µM; in the assay with M14 melanoma, 10.7 µM; in the assay on A549 NSCLC, 26.4 µM; in the assay on EKVX NSCLC, 28 µM; in the assay with K-562 leukemia it was 10.6 µM; with SNB-75 CNS, 22.9 µM.
Regarding `Cc1cccc(N=C2NC(=O)C(CC(=O)Nc3ccccc3Cl)S2)c1` (stereo unspecified), the total growth inhibition concentration (TGI) with HOP-92 NSCLC, with CAKI-1 renal, in the assay on M14 melanoma, in the assay on A549 NSCLC, in the assay with EKVX NSCLC and in the assay on TK-10 renal was > 100 µM each time. The TGI in the assay with K-562 leukemia and in the assay on SNB-75 CNS was > 100 µM each time.
Consider `NC(=O)N/N=C(\CCC(=O)N(Cc1ccccc1)Cc1ccccc1)CC(=O)c1ccc(F)cc1`, for which the TGI in the assay with CAKI-1 renal, in the assay on M14 melanoma, with A549 NSCLC, in the assay on EKVX NSCLC, with TK-10 renal and with K-562 leukemia was > 100 µM throughout.
As to `COc1ccc(/C=N\O[Si](C)(C)C(C)(C)C)cc1O[Si](C)(C)C(C)(C)C`, the TGI with HOP-92 NSCLC turned out to be 37.6 µM; with CAKI-1 renal it was 40.2 µM; in the assay on M14 melanoma it was 36.3 µM; with A549 NSCLC it was 34.9 µM; in the assay on EKVX NSCLC, 41.6 µM; in the assay on TK-10 renal, 36.3 µM. Also, the TGI in the assay on K-562 leukemia turned out to be 37.2 µM; in the assay with SNB-75 CNS, 37.1 µM.
For the compound `NNC(=S)N/N=C(/C(=O)Nc1ccc([N+](=O)[O-])cc1)c1nc2ccc([N+](=O)[O-])cc2[nH]c1=O`, the concentration for total growth inhibition (TGI) in the assay on HOP-92 NSCLC, with CAKI-1 renal, in the assay on M14 melanoma, in the assay on A549 NSCLC, in the assay with EKVX NSCLC and with TK-10 renal was > 100 µM throughout. For the same compound, the TGI in the assay on K-562 leukemia and with SNB-75 CNS was > 100 µM throughout.
Take `O=C(CC(=O)c1ccccc1)C(=O)NC12CC3CC(CC(C3)C1)C2`: the TGI in the assay on HOP-92 NSCLC, in the assay on CAKI-1 renal, with M14 melanoma, in the assay with A549 NSCLC, in the assay with EKVX NSCLC and in the assay on TK-10 renal was > 100 µM each time. Further, the concentration for total growth inhibition (TGI) with K-562 leukemia and in the assay on SNB-75 CNS was > 100 µM each time.
`O=C(CC(=O)C1CCOC1=O)C(=O)Nc1ccc(Cl)cc1` (stereo unspecified): the TGI in the assay with HOP-92 NSCLC, with CAKI-1 renal, in the assay on M14 melanoma, in the assay on A549 NSCLC, in the assay on EKVX NSCLC and in the assay with TK-10 renal was > 100 µM each time. Also, the TGI with K-562 leukemia and in the assay on SNB-75 CNS was > 100 µM in each case.
As to `O=C1NN=C(c2ccc([N+](=O)[O-])cc2)C1n1nc(-c2ccccc2)c2ccccc2c1=O` (stereo unspecified), the TGI with HOP-92 NSCLC, with CAKI-1 renal, in the assay with M14 melanoma, with A549 NSCLC, in the assay with EKVX NSCLC and with TK-10 renal was > 100 µM throughout. Besides, the TGI in the assay on K-562 leukemia and in the assay with SNB-75 CNS was > 100 µM each time.
Take `COc1cc2c(Cc3cc(OCc4ccccc4)ccc3N)nccc2c(OC)c1OC`: the TGI in the assay with HOP-92 NSCLC, in the assay with M14 melanoma, in the assay on A549 NSCLC, in the assay with EKVX NSCLC, with TK-10 renal and in the assay with K-562 leukemia was > 10 µM each time. Moreover, in the assay on SNB-75 CNS, the TGI was > 10 µM.
For `COC(=O)c1nc(N)nc(C(=O)OC)c1C(=O)c1ccccc1`, the TGI with HOP-92 NSCLC, with M14 melanoma, in the assay on A549 NSCLC, in the assay on EKVX NSCLC, in the assay with TK-10 renal and with K-562 leukemia was > 100 µM throughout. Moreover, in the assay with SNB-75 CNS, the concentration for total growth inhibition (TGI) is > 100 µM.
For the compound `COC(=O)C1=C(c2ccc(Cl)cc2)C(O)N=C(NN)N1` (stereo unspecified), the TGI in the assay with HOP-92 NSCLC, in the assay on CAKI-1 renal, in the assay on M14 melanoma, with A549 NSCLC, with EKVX NSCLC and in the assay with TK-10 renal was > 100 µM in each case. Also, the TGI in the assay with K-562 leukemia was > 100 µM.
As to `N#CC(C(=O)CCC(=O)Nc1ccc(Cl)c(Cl)c1)c1ccc(Cl)cc1` (stereo unspecified), the total growth inhibition concentration (TGI) in the assay with HOP-92 NSCLC, in the assay with CAKI-1 renal, in the assay with M14 melanoma, in the assay on A549 NSCLC, in the assay with EKVX NSCLC and with TK-10 renal was > 100 µM each time. For the same compound, the TGI in the assay with K-562 leukemia was 90.5 µM; in the assay with SNB-75 CNS it was > 100 µM.
For `OC1c2ccccc2C2C(O)c3ccccc3C12` (stereo unspecified), the TGI with HOP-92 NSCLC, in the assay on CAKI-1 renal, in the assay on M14 melanoma, in the assay on A549 NSCLC, in the assay on EKVX NSCLC and in the assay with TK-10 renal was > 100 µM in each case. For the same compound, the TGI in the assay with K-562 leukemia and in the assay on SNB-75 CNS was > 100 µM throughout.
For `CC(=O)O[C@H]1CC[C@@]2(C)C(=C/C(=N\[N+](=O)[O-])[C@H]3C4CCC([C@H](C)CCCC(C)C)[C@@]4(C)CCC32)C1` (stereo partly specified), the TGI in the assay with HOP-92 NSCLC, with CAKI-1 renal, in the assay with M14 melanoma, in the assay on A549 NSCLC, in the assay on EKVX NSCLC and in the assay on TK-10 renal was > 100 µM in each case. Moreover, the TGI in the assay on K-562 leukemia and with SNB-75 CNS was > 100 µM throughout.
Regarding `CC(=O)O/N=C/c1cc2c(cc1Br)OCO2`, the TGI with HOP-92 NSCLC, with CAKI-1 renal, in the assay with A549 NSCLC, with EKVX NSCLC, in the assay on TK-10 renal and in the assay with K-562 leukemia was > 349 µM throughout.
Regarding `CCSC(=O)C1(C)OC2CCCCC2C1=O` (stereo unspecified), the TGI in the assay with CAKI-1 renal, with M14 melanoma, with A549 NSCLC, in the assay with TK-10 renal, in the assay on K-562 leukemia and in the assay with SNB-75 CNS was > 100 µM in each case.
Regarding `CC1(C)N=C(Oc2ccccc2)n2nccc2N1`, the concentration for total growth inhibition (TGI) in the assay with HOP-92 NSCLC, in the assay on CAKI-1 renal, with M14 melanoma, in the assay on A549 NSCLC, in the assay with EKVX NSCLC and in the assay with TK-10 renal was > 100 µM in each case. For the same compound, the TGI in the assay with K-562 leukemia and with SNB-75 CNS was > 100 µM in each case.
Turning to `O=c1cc(-c2ccc(O)cc2)oc2cc(O)cc(O)c12`, the total growth inhibition concentration (TGI) is 56.6 µM in the assay on HOP-92 NSCLC; > 100 µM in the assay with M14 melanoma; > 100 µM in the assay with A549 NSCLC; 96.9 µM in the assay on EKVX NSCLC; > 100 µM in the assay with TK-10 renal; > 100 µM in the assay on K-562 leukemia. This compound showed a TGI in the assay with SNB-75 CNS of 43.7 µM.
On to `COC1(Cc2ccccc2)C(=O)c2ccccc2N1C(C)=O` (stereo unspecified), for which the TGI in the assay on HOP-92 NSCLC, in the assay on CAKI-1 renal, in the assay with M14 melanoma, with A549 NSCLC, with EKVX NSCLC and with K-562 leukemia was > 100 µM throughout. In addition, in the assay with SNB-75 CNS, the TGI was > 100 µM.
Turning to `Nc1ccc(C2=Nc3ccccc3SC(c3ccccc3O)C2)cc1` (stereo unspecified), the TGI in the assay with CAKI-1 renal is > 100 µM; with M14 melanoma it was > 100 µM; with A549 NSCLC, > 100 µM; in the assay on EKVX NSCLC, > 100 µM; in the assay on TK-10 renal, > 100 µM; with K-562 leukemia, 51.6 µM. This compound also gave a TGI in the assay with SNB-75 CNS of 93.3 µM.
For the compound `CC#Cc1c(C#CC)c(OC)c2c(c1OC)C(=O)c1ccccc1C2=O`, the TGI in the assay with CAKI-1 renal, with M14 melanoma, in the assay on A549 NSCLC, in the assay with EKVX NSCLC, in the assay with TK-10 renal and in the assay on K-562 leukemia was > 100 µM in each case.
As for `CCCCCCCCCCCCCCCCCc1nnc(N)o1`, the TGI with HOP-92 NSCLC, in the assay on CAKI-1 renal, with M14 melanoma, with A549 NSCLC, in the assay with TK-10 renal and with K-562 leukemia was > 100 µM throughout. In the assay on SNB-75 CNS, the concentration for total growth inhibition (TGI) was > 100 µM.

The values are drawn from PubChem BioAssay (NCI).
